Target: T1, Human AMPK α2ß2γ1 (Homo sapiens, UniProt O43741+P54646)
T1 construct: The full length cDNAs of human AMPK ß2 (NM_005399.3) and human AMPK α2 (NM_006252.3); The full length cDNAs of human AMPK ß2 (NM_005399.3); 6xHis (N); made in house; host or cells: Escherichia coli BL21 CodonPlus (DE3)-RIL
Test: Test Example 2: evaluation of an activator for AMP-activated protein kinase (AMPK), LabChip mobility shift assay with CaMKK2-phosphorylated enzyme
Assay type: biochemical
Details: for EC150 (compound concentration showing 150% relative to the control (100%)): FL-Peptide 7 substrate, 25° C., 2 hours; for Emax: relative to control (100%), read-out: Emax (maximum rate of increase in activity within the measurement range)
In short: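 E. coli-expressed His-tagged human AMPK α2β2γ1 preactivated with GST-CaMKK2 (0.2 mM ATP, 25° C, 1–1.5 h), preincubated 10 min with compound (1% DMSO), then reacted 2 h at 25° C with 3 μM FL-Peptide 7 and 0.4 mM ATP in substrate solution, pH 7.0. Mobility-shift conversion rate gives % activity increase over no-compound control.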

T1 sequence (P54646 whole entry): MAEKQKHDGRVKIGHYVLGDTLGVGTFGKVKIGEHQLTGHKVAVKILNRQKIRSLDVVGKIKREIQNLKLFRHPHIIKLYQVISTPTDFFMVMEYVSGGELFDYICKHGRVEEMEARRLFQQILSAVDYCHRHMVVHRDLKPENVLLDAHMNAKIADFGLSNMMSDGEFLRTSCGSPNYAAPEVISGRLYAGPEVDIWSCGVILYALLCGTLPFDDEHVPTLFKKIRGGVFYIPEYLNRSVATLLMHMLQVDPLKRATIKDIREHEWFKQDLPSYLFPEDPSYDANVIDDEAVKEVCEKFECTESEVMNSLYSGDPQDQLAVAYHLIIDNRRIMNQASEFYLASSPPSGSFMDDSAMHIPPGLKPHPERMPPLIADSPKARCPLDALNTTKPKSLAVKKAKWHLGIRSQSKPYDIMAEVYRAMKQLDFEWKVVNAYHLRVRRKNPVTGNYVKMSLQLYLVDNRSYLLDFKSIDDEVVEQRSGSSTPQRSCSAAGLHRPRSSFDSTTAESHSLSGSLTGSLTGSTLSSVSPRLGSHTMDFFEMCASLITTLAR
T1 sequence (O43741 whole entry): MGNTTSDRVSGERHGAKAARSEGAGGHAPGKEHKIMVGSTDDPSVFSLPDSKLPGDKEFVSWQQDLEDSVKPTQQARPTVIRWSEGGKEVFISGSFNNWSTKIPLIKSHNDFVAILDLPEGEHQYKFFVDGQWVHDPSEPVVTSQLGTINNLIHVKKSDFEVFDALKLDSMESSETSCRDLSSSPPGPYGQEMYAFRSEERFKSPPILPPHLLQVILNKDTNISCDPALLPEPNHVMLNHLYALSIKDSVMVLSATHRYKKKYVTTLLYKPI
T1 sequence (P54619 whole entry partner): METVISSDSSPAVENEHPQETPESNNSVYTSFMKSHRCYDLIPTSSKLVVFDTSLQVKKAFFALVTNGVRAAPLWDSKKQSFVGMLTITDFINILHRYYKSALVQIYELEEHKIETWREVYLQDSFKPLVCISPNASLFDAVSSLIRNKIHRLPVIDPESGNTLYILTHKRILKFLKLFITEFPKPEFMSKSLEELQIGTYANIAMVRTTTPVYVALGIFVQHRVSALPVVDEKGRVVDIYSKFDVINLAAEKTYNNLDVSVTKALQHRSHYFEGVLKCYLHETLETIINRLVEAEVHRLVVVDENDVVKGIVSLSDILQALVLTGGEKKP

Compound | EC150 (compound concentration showing 150% relative to the control (100%)) | Emax
O[C@@H]1CO[C@H]2[C@@H]1OC[C@H]2Oc1nc2nc(NC3CCc4cc(OC5CC6(COC6)C5)cc(F)c43)c(Cl)cc2[nH]1 (stereo partly shown) [Compound I-2-60] | 6.7 nM | 634%
O[C@@H]1CO[C@H]2[C@@H]1OC[C@H]2Oc1nc2nc(N[C@H]3CCc4cc(-c5cncnc5)cc(F)c43)c(Cl)cc2[nH]1 [Compound I-2-61] | 3.1 nM | 649%
CN(C)c1ncc(-c2cc(F)c3c(c2)CC[C@@H]3Nc2nc3nc(O[C@@H]4CO[C@H]5[C@@H]4OC[C@H]5O)[nH]c3cc2Cl)cn1 [Compound I-2-62] | 9.4 nM | 638%
O=c1[nH]cc(-c2cc(F)c3c(c2)CC[C@@H]3Nc2nc3nc(O[C@@H]4CO[C@H]5[C@@H]4OC[C@H]5O)[nH]c3cc2Cl)cc1F [Compound I-2-63] | 3.9 nM | 653%
O[C@@H]1CO[C@H]2[C@@H]1OC[C@H]2Oc1nc2nc(N[C@H]3CCc4cc(-c5cnc(C(F)(F)F)nc5)cc(F)c43)c(Cl)cc2[nH]1 [Compound I-2-64] | 9.3 nM | 676%
Cc1ccc(-c2cc(F)c3c(c2)CC[C@@H]3Nc2nc3nc(O[C@@H]4CO[C@H]5[C@@H]4OC[C@H]5O)[nH]c3cc2Cl)cn1 [Compound I-2-66] | 8.6 nM | 711%
O[C@@H]1CO[C@H]2[C@@H]1OC[C@H]2Oc1nc2nc(N[C@H]3CCc4cc(-c5ccc(C(F)(F)F)nc5)cc(F)c43)c(Cl)cc2[nH]1 [Compound I-2-67] | 29 nM | 683%
Cn1cc(-c2cc(F)c3c(c2)CC[C@@H]3Nc2nc3nc(O[C@@H]4CO[C@H]5[C@@H]4OC[C@H]5O)[nH]c3cc2Cl)cc(F)c1=O [Compound I-2-68] | 1.8 nM | 600%
CCc1ncc(-c2cc(F)c3c(c2)CC[C@@H]3Nc2nc3nc(O[C@@H]4CO[C@H]5[C@@H]4OC[C@H]5O)[nH]c3cc2Cl)cn1 [Compound I-2-69] | 3 nM | 598%
Cn1ccc(-c2cc(F)c3c(c2)CC[C@@H]3Nc2nc3nc(O[C@@H]4CO[C@H]5[C@@H]4OC[C@H]5O)[nH]c3cc2Cl)n1 [Compound I-2-70] | 5.2 nM | 583%
CCOc1ncc(-c2cc(F)c3c(c2)CC[C@@H]3Nc2nc3nc(O[C@@H]4CO[C@H]5[C@@H]4OC[C@H]5O)[nH]c3cc2Cl)cn1 [Compound I-2-71] | 8.6 nM | 590%
O[C@@H]1CO[C@H]2[C@@H]1OC[C@H]2Oc1nc2nc(NC3CCc4cc(OCF)cc(F)c43)c(Cl)cc2[nH]1 (stereo partly shown) [Compound I-2-72] | 1.8 nM | 592%
CC(C)(O)Cn1cc(-c2cc(F)c3c(c2)CC[C@@H]3Nc2nc3nc(O[C@@H]4CO[C@H]5[C@@H]4OC[C@H]5O)[nH]c3cc2Cl)cn1 [Compound I-2-73] | 1.4 nM | 608%
O[C@@H]1CO[C@H]2[C@@H]1OC[C@H]2Oc1nc2nc(N[C@H]3CCc4cc(-c5cnn(C6COC6)c5)cc(F)c43)c(Cl)cc2[nH]1 [Compound I-2-74] | 1.5 nM | 609%
O[C@@H]1CO[C@H]2[C@@H]1OC[C@H]2Oc1nc2nc(NC3CCc4cc(OCC(F)F)cc(F)c43)c(Cl)cc2[nH]1 (stereo partly shown) [Compound I-2-75] | 2.7 nM | 581%
CC(C)(O)C#Cc1cc(F)c2c(c1)CC[C@@H]2Nc1nc2nc(O[C@@H]3CO[C@H]4[C@@H]3OC[C@H]4O)[nH]c2cc1Cl [Compound I-2-77] | 3.8 nM | 650%
N#CCn1cc(-c2cc(F)c3c(c2)CC[C@@H]3Nc2nc3nc(O[C@@H]4CO[C@H]5[C@@H]4OC[C@H]5O)[nH]c3cc2Cl)cn1 [Compound I-2-78] | 2.5 nM | 692%

Reference: US20190135834A1, “5-SUBSTITUTED AZABENZIMIDAZOLE DERIVATIVE HAVING ???? ACTIVATION ACTION” (Shionogi & Co., Ltd., priority 2016, published 2019)
